Test results reported in patent US20210212934A1, “METHODS FOR PROVIDING LONG-LASTING ANESTHETIC EFFECT USING MICROPARTICLES” (priority 2007, published 2021).

Test: In vitro lidocaine release from microparticles (dialysis tube, water, 37° C., UV 214 nm)
Type: physicochemical
Description: Microparticle batches in an amount of 100 mg were placed in a dialysis tube (high retention seamless cellulose tubing; 23 mm×15 mm. MW cut-off 05173; Sigma Aldrich). The tube was then placed in a 30 ml glass vial containing 10 ml of deionized ultra-filtered water (Fisher Scientific). Vials were placed in a reciprocating shaking bath (Reciprocating Shaking Bath Model 50; Precision Scientific) with the temperature adjusted to 37° C., and shaking speed of 100 rpm. […] The entire 10 ml of dissolution medium was replaced with fresh medium at each sampling time interval. Dilution of 0.1 ml of the withdrawn sample was diluted to 10 ml of water in clean culture tubes of borosilicate glass (Pyrex). […] Two samples per microparticle batch were measured for drug release and triplicate samples were prepared for each release interval for UV-absorbance.

CCN(CC)CC(=O)Nc1c(C)cccc1C [lidocaine free base, lidocaine]
time of peak of release (in vitro release profile, single peak): about one
time at which release falls below minimum required level (5.6%) (in vitro release, point 10): 2.5 days
time at which drug is "exhausted" (in vitro release, time point 11): 3 days
peak of lidocaine release (in vitro, % released at peak at about one day): 18%
